Reference: ChEMBL document CHEMBL3813672, “Discovery of anti-cancer activity for benzo[1,2,4]triazin-7-ones: Very strong correlation to pleurotin and thioredoxin reductase inhibition” (Bioorg Med Chem, 2016)

How the values were obtained:
NCI-H23 = assay: Growth inhibition of human NCI-H23 cells incubated for 48 hrs by sulforhodamine B assay; format: functional; conditions: NCI-H23, 48 h
U-251 = assay: Growth inhibition of human U251 cells incubated for 48 hrs by sulforhodamine B assay; format: functional; conditions: U-251, 48 h
[1] = Growth inhibition of human HL-60(TB) cells incubated for 48 hrs by sulforhodamine B assay; format: functional; conditions: HL-60, 48 h
[2] = Growth inhibition of human RPMI8226 cells incubated for 48 hrs by sulforhodamine B assay; format: functional; conditions: RPMI-8226, 48 h
[3] = Growth inhibition of human HCC2998 cells incubated for 48 hrs by sulforhodamine B assay; format: functional; conditions: HCC 2998, 48 h
MDA-MB-435 = assay: Growth inhibition of human MDA-MB-435 cells incubated for 48 hrs by sulforhodamine B assay; format: functional; conditions: MDA-MB-435, 48 h
[4] = Growth inhibition of human IGROV1 cells incubated for 48 hrs by sulforhodamine B assay; format: functional; conditions: IGROV-1, 48 h
[5] = Growth inhibition of human COLO205 cells incubated for 48 hrs by sulforhodamine B assay; format: functional; conditions: COLO 205, 48 h
T47D = assay: Growth inhibition of human T47D cells incubated for 48 hrs by sulforhodamine B assay; format: functional
SR = assay: Growth inhibition of human SR cells incubated for 48 hrs by sulforhodamine B assay; format: functional
[6] = Growth inhibition of human SF295 cells incubated for 48 hrs by sulforhodamine B assay; format: functional; conditions: SF-295, 48 h
[7] = Growth inhibition of human HCT116 cells incubated for 48 hrs by sulforhodamine B assay; format: functional; conditions: HCT-116, 48 h
[8] = Growth inhibition of human SKOV3 cells incubated for 48 hrs by sulforhodamine B assay; format: functional; conditions: SK-OV-3, 48 h
[9] = Selectivity ratio of IC50 for human GM00637 cells to IC50 for human DU145 cells; format: ADME, cell-based; conditions: GM00637 cells versus DU145 cells, read-out: Ratio IC50
Malme-3M = assay: Growth inhibition of human MALME-3M cells incubated for 48 hrs by sulforhodamine B assay; format: functional
[10] = Growth inhibition of human TK10 cells incubated for 48 hrs by sulforhodamine B assay; format: functional; conditions: TK-10, 48 h
NCI-H322M = assay: Growth inhibition of human NCI-H322M cells incubated for 48 hrs by sulforhodamine B assay; format: functional
[11] = Growth inhibition of human HOP62 cells incubated for 48 hrs by sulforhodamine B assay; format: functional; conditions: HOP-62, 48 h
[12] = Growth inhibition of human PC3 cells incubated for 48 hrs by sulforhodamine B assay; format: functional; conditions: PC-3, 48 h
EKVX = assay: Growth inhibition of human EKVX cells assessed as cell growth at 10 uM incubated for 48 hrs by sulforhodamine B assay relative to control; format: functional; conditions: read-out: Activity
SN12C = assay: Growth inhibition of human SN12C cells incubated for 48 hrs by sulforhodamine B assay; format: functional
CCRF-CEM = assay: Growth inhibition of human CCRF-CEM cells incubated for 48 hrs by sulforhodamine B assay; format: functional
[13] = Growth inhibition of human SF268 cells incubated for 48 hrs by sulforhodamine B assay; format: functional; conditions: SF-268, 48 h
[14] = Growth inhibition of human DU145 cells incubated for 48 hrs by sulforhodamine B assay; format: functional; conditions: DU-145, 48 h
[15] = Growth inhibition of human OVCAR4 cells incubated for 48 hrs by sulforhodamine B assay; format: functional; conditions: OVCAR-4, 48 h
[16] = Growth inhibition of human HCT15 cells incubated for 48 hrs by sulforhodamine B assay; format: functional; conditions: HCT-15, 48 h
KM12 = assay: Growth inhibition of human KM12 cells incubated for 48 hrs by sulforhodamine B assay; format: functional; conditions: KM12, 48 h
[17] = Growth inhibition of human UACC257 cells incubated for 48 hrs by sulforhodamine B assay; format: functional; conditions: UACC-257, 48 h
[18] = Growth inhibition of human Caki1 cells incubated for 48 hrs by sulforhodamine B assay; format: functional; conditions: CAKI-1, 48 h
[19] = Growth inhibition of human OVCAR8 cells incubated for 48 hrs by sulforhodamine B assay; format: functional; conditions: OVCAR-8, 48 h
[20] = Growth inhibition of human SNB75 cells incubated for 48 hrs by sulforhodamine B assay; format: functional; conditions: SNB-75, 48 h
[21] = Growth inhibition of human Hs 578T cells incubated for 48 hrs by sulforhodamine B assay; format: functional
NCI-H522 = assay: Growth inhibition of human NCI-H522 cells incubated for 48 hrs by sulforhodamine B assay; format: functional; conditions: NCI-H522, 48 h
[22] = Growth inhibition of human MOLT4 cells incubated for 48 hrs by sulforhodamine B assay; format: functional; conditions: MOLT-4, 48 h
[23] = read-out: pLC50 (the source's name) (converted)

## O=c1ccc2nc(C(F)(F)F)nn(-c3ccccc3)c-2c1
NCI-H23
  GI50: 5.89 µM
NCI-H23; [23]
  CC50: 66.1 µM
NCI-H23; read-out: pTGI (converted)
  TGI: 22.4 µM
U-251
  GI50: 13.5 µM
U-251; [23]
  CC50: 60.3 µM
U-251; read-out: pTGI (converted)
  TGI: 28.8 µM
[1]
  GI50: 1.2 µM
[1]; [23]
  CC50: > 100 µM
[1]; read-out: pTGI (converted)
  TGI: 4.27 µM
[2]
  GI50: 4.79 µM
[2]; [23]
  CC50: > 100 µM
[2]; read-out: pTGI (converted)
  TGI: 77.6 µM
[3]
  GI50: 15.5 µM
[3]; [23]
  CC50: 57.5 µM
[3]; read-out: pTGI (converted)
  TGI: 29.5 µM
MDA-MB-435
  GI50: 4.57 µM
MDA-MB-435; [23]
  CC50: 40.7 µM
MDA-MB-435; read-out: pTGI (converted)
  TGI: 16.6 µM
[4]
  GI50: 12 µM
[4]; [23]
  CC50: 55 µM
[4]; read-out: pTGI (converted)
  TGI: 25.7 µM
[5]
  GI50: 2.29 µM
[5]; [23]
  CC50: > 100 µM
[5]; read-out: pTGI (converted)
  TGI: 5.75 µM
T47D
  GI50: 1.7 µM
T47D; [23]
  CC50: > 100 µM
T47D; read-out: pTGI (converted)
  TGI: 6.61 µM
SR
  GI50: 1 µM
SR; [23]
  CC50: > 100 µM
SR; read-out: pTGI
  TGI: > 100 µM
[6]
  GI50: 22.9 µM
[6]; [23]
  CC50: > 100 µM
[6]; read-out: pTGI (converted)
  TGI: 67.6 µM
[7]
  GI50: 1.62 µM
[7]; [23]
  CC50: 6.17 µM
[7]; read-out: pTGI (converted)
  TGI: 3.16 µM
[8]
  GI50: 15.1 µM
[8]; [23]
  CC50: > 100 µM
[8]; read-out: pTGI
  TGI: > 100 µM
[9]
  selectivity ratio: 2
Malme-3M
  GI50: 1.82 µM
Malme-3M; [23]
  CC50: 6.03 µM
Malme-3M; read-out: pTGI (converted)
  TGI: 3.31 µM
[10]
  GI50: 1.62 µM
[10]; [23]
  CC50: 5.89 µM
[10]; read-out: pTGI (converted)
  TGI: 3.09 µM
NCI-H322M
  GI50: 18.6 µM
NCI-H322M; [23]
  CC50: 61.7 µM
NCI-H322M; read-out: pTGI (converted)
  TGI: 33.9 µM
[11]
  GI50: 7.94 µM
[11]; [23]
  CC50: 83.2 µM
[11]; read-out: pTGI (converted)
  TGI: 27.5 µM
[12]
  GI50: 10.7 µM
[12]; [23]
  CC50: 52.5 µM
[12]; read-out: pTGI (converted)
  TGI: 23.4 µM
EKVX
  growth at 10 µM: 95.8%
SN12C
  GI50: 7.24 µM
SN12C; [23]
  CC50: > 100 µM
SN12C; read-out: pTGI (converted)
  TGI: 57.5 µM
CCRF-CEM
  GI50: 2.34 µM
CCRF-CEM; [23]
  CC50: > 100 µM
[13]
  GI50: 15.1 µM
[13]; [23]
  CC50: 56.2 µM
[13]; read-out: pTGI (converted)
  TGI: 28.8 µM
[14]
  GI50: 1.78 µM
[14]; [23]
  CC50: 5.62 µM
[14]; read-out: pTGI (converted)
  TGI: 3.16 µM
[15]
  GI50: 1.48 µM
[15]; [23]
  CC50: 5.37 µM
[15]; read-out: pTGI (converted)
  TGI: 2.82 µM
[16]
  GI50: 2.29 µM
[16]; [23]
  CC50: 8.13 µM
[16]; read-out: pTGI (converted)
  TGI: 3.39 µM
KM12
  GI50: 19.5 µM
KM12; [23]
  CC50: 70.8 µM
KM12; read-out: pTGI (converted)
  TGI: 37.2 µM
[17]
  GI50: 1.91 µM
[17]; [23]
  CC50: 8.51 µM
[17]; read-out: pTGI (converted)
  TGI: 4.07 µM
[18]
  GI50: 1.48 µM
[18]; [23]
  CC50: 5.37 µM
[18]; read-out: pTGI (converted)
  TGI: 2.82 µM
[19]
  GI50: 4.17 µM
[19]; [23]
  CC50: > 100 µM
[19]; read-out: pTGI (converted)
  TGI: 33.9 µM
[20]
  GI50: 13.2 µM
[20]; [23]
  CC50: 52.5 µM
[20]; read-out: pTGI (converted)
  TGI: 26.3 µM
[21]
  GI50: 12.3 µM
[21]; [23]
  CC50: > 100 µM
[21]; read-out: pTGI (converted)
  TGI: 81.3 µM
NCI-H522
  GI50: 1.51 µM
NCI-H522; [23]
  CC50: 6.03 µM
NCI-H522; read-out: pTGI (converted)
  TGI: 3.02 µM
[22]
  GI50: 2.14 µM
[22]; [23]
  CC50: > 100 µM
[22]; read-out: pTGI (converted)
  TGI: 9.12 µM
